Measurements published in patent US20150025025A1, “Immuno-modulators for treating functional epithelial syndromes” (priority 2013, published 2015).

Experiments:
[1] = test system: patients having esophageal erosions; test: Randomized seven day trial in patients with esophageal erosions (Example 19); format: in vivo, human; settings: for Complete Relief, number of patients / Complete Relief, percent of patients: loss of all symptoms by day 8; for Complete Healing, number of patients / Complete Healing, percent of patients: no erosions by endoscopy at day 8
From the text: The trial period was seven days. There were two primary end points, i.e., healing and no healing, and three secondary end points, i.e., no relief, partial relief, and complete relief of pain. Healing was defined as no evidence of erosions by endoscopy at day 8 that were present on day 0. No healing was defined as evidence of erosions remaining on day 8.

[2] = test system: patient with functional dyspepsia; test: Case: patient with functional dyspepsia (Example 14); format: in vivo, human; settings: post-prandial early satiety, bloating, indigestion
From the text: A person diagnosed with functional dyspepsia according to the Rome II criteria suffered from post-prandial early satiety, bloating, and stomach indigestion. […] Initially, there was only a lessening of post-prandial indigestion.

[3] = test system: gastroduodenal ulceration; test: Case: equine ulcer colic in a foal (Example 24); format: in vivo; settings: prior treatment
From the text: A 3 week old equine foal was diagnosed by a large animal veterinarian with gastroduodenal ulceration following 3 days of poor appetite. […] The foal resumed normal diet and activity by day 4 of treatment.

right dorsal colitis = test: Case: equine right dorsal colitis (Example 23); format: in vivo, horse; settings: 8-12 grams four times daily, NSAID stopped
Experimental: An 8 year old quarter horse diagnosed with right dorsal colitis by an equine veterinarian had been on high doses of bananime, a non-steroidal anti-inflammatory (NSAID) pain reliever. Right dorsal colitis is known to be caused by ulcerations within the colon of the horse. Treatment was initiated by cessation of the NSAID and administration of 8-12 grams sucralfate four times daily. […] Oral administration to the horse of 30 ml of an immuno-modulating polygalacturonic-rhamnose suspension every 8 hours led to an improvement in attitude and appetite within 24 hours, a complete cessation of diarrhea in 36 hours, and the resumption of a regular diet in 72 hours.

Row | Compound | Complete Relief, number of patients [1] | Complete Relief, percent of patients [1] [%] | Complete Healing, number of patients [1] | Complete Healing, percent of patients [1] | Complete Healing, percent of patients ([1]; listed as ranitidine) [%] | Effect on symptoms of functional dyspepsia [2] | Effect on symptoms [3] | Course of right dorsal colitis under treatment (right dorsal colitis)
1 | CNC(=C[N+](=O)[O-])NCCSCc1ccc(CN(C)C)o1 [H2B Ranitidine, ranitidine] | 3 | 30 | 0 (0%) | 0 (0%) | 0 | – | – | –
2 | COc1ccc2[nH]c([S+]([O-])Cc3ncc(C)c(OC)c3C)nc2c1 (centres unmarked) [Omeprazole, omeprazole] | 4 | 40 | 3 | 30% | – | – | – | –
3 | COc1ccc2nc([S@@+]([O-])Cc3ncc(C)c(OC)c3C)[nH]c2c1 [esomeprazole] | – | – | – | – | – | failed to improve their symptoms | – | –
4 | COCCCOc1ccnc(C[S+]([O-])c2nc3ccccc3[nH]2)c1C (centres unmarked) [raberazole] | – | – | – | – | – | failed to improve their symptoms | – | –
5 | sucralfate | – | – | – | – | – | failed to improve their symptoms | failed to alleviate the symptoms | worsened after 2 days
